In paper PMC11382315 (Heliyon, 2024):

What was measured:
HSP90AA1 [1] = target: T1, HSP90AA1 (Homo sapiens, UniProt P07900); assay: Limited proteolysis-mass spectrometry; format: binding; settings: lysate of dsDNA/dsRNA-stimulated primary human thyrocytes, 0.33 nmol/μg total protein
primary human thyrocytes = assay: Observed cytotoxic effects in stimulated primary human thyrocytes; format: cell-based; settings: two doses: 10 and 40 μM (β-sitosterol 50 and 150 μM)
HSP90AA1 [2] = target: T1, HSP90AA1; assay: Microscale thermophoresis; format: binding

Structure (SMILES) | Kd (HSP90AA1 [2]) [µM] | KD (affinity with HSP90AA1) (HSP90AA1 [2]; His-tag labeled HSP90AA1 50 nM, ligand 30 nM to 1 mM, PBS) | interaction with HSP90AA1 by Lip-MS (HSP90AA1 [1]) | cytotoxic effects (primary human thyrocytes)
O=c1c(O)c(-c2ccc(O)c(O)c2)oc2cc(O)cc(O)c12 [quercetin] |  |  | identified as a common interacting protein target | without observed cytotoxic effects
O=c1c(O)c(-c2ccc(O)cc2O)oc2cc(O)cc(O)c12 [morin] | 123 |  | identified as a common interacting protein target | without observed cytotoxic effects
CC[C@H](CC[C@@H](C)[C@H]1CC[C@H]2[C@@H]3CC=C4C[C@@H](O)CC[C@]4(C)[C@H]3CC[C@]12C)C(C)C [β-sitosterol] |  | no binding affinity |  | without observed cytotoxic effects

Now from value to compound, other results behind:

Kd (HSP90AA1 [2]) [µM] | KD (affinity with HSP90AA1) (HSP90AA1 [2]; His-tag labeled HSP90AA1 50 nM, ligand 30 nM to 1 mM, PBS) | Structure (SMILES) | interaction with HSP90AA1 by Lip-MS (HSP90AA1 [1]) | cytotoxic effects (primary human thyrocytes)
294 |  | O=c1cc(-c2ccc(O)c(O)c2)oc2cc(O)cc(O)c12 [luteolin] | identified as a common interacting protein target | 
169 |  | O=c1c(O)c(-c2ccc(O)cc2)oc2cc(O)cc(O)c12 [kaempferol] |  | without observed cytotoxic effects
